Measured values reported in ChEMBL document CHEMBL4339201, “A survey of core replacements in indole-based HIV-1 attachment inhibitors” (Bioorg Med Chem Lett, 2019).

Tests used:
[1] = Cytotoxicity against human MT2 cells assessed as decrease in cell viability; assay type: cell-based
[2] = tested on: Human immunodeficiency virus 1; assay: Antiviral activity against ENV pseudotyped HIV1 […] infected in human HeLa67 cells expressing CD4/CCR5[…] after 72 hrs by luciferase reporter gene assay; assay type: functional, organism-based; settings: Human immunodeficiency virus 1, HeLa67, 72 h

Row | SMILES | CC50 [1] | EC50 [2]
1 | O=C(C(=O)N1CCN(C(=O)c2ccccc2)CC1)c1c[nH]c2ccccc12 | 339 µM | 
2 | COc1ccc2[nH]c(C(=O)C(=O)N3CCN(C(=O)c4ccccc4)CC3C)cc2c1 (stereo not given) | 33 µM | > 5000 nM
3 | O=C(C(=O)N1CCN(C(=O)c2ccccc2)CC1)c1ccc2nccnc2c1 | > 300 µM | 3610 nM
4 | O=C(C(=O)N1CCN(C(=O)c2ccccc2)CC1)c1csc2ccccc12 | 141 µM | 764 nM
5 | C[C@@H]1CN(C(=O)c2ccccc2)CCN1C(=O)C(=O)c1nc2ccccc2n1C | > 300 µM | 12 nM
6 | C[C@@H]1CN(C(=O)c2ccccc2)CCN1C(=O)C(=O)c1ccc2ccccc2n1 | 198 µM | 0.7 nM
7 | O=C(C(=O)N1CCN(C(=O)c2ccccc2)CC1)c1cnc2ccccc2n1 | > 300 µM | 108 nM
8 | C[C@@H]1CN(C(=O)c2ccccc2)CCN1C(=O)C(=O)c1cc2sccc2[nH]1 | 106 µM | 2320 nM
9 | C[C@@H]1CN(C(=O)c2ccccc2)CCN1C(=O)C(=O)c1cc2sccc2s1 | > 300 µM | 358 nM
10 | O=C(C(=O)N1CCN(C(=O)c2ccccc2)CC1)c1cc2ccccc2[nH]1 | > 300 µM | 561 nM
11 | O=C(C(=O)N1CCN(C(=O)c2ccccc2)CC1)c1cn2c(n1)sc1ccccc12 | > 300 µM | 52 nM
12 | CC1CN(C(=O)c2ccccc2)CCN1C(=O)C(=O)c1ccc2c(O)cccc2n1 (stereo not given) | 195 µM | 0.4 nM
13 | C[C@@H]1CN(C(=O)c2ccccc2)CCN1C(=O)C(=O)c1ccc2scnc2c1 | > 300 µM | 86 nM
14 | O=C(C(=O)N1CCN(C(=O)c2ccccc2)CC1)c1nc2ccccc2o1 | > 300 µM | > 5000 nM
15 | O=C(C(=O)N1CCN(C(=O)c2ccccc2)CC1)c1cnn2ccccc12 | > 300 µM | > 5000 nM
16 | C[C@H]1CN(C(=O)c2ccccc2)CCN1C(=O)C(=O)c1cnc2ccccc2n1 | 114 µM | 26 nM
17 | COc1ccc2cc(C(=O)C(=O)N3CCN(C(=O)c4ccccc4)C[C@H]3C)ccc2c1 | 41 µM | 0.1 nM
18 | O=C(C(=O)N1CCN(C(=O)c2ccccc2)CC1)c1cc2ccccc2cn1 | > 300 µM | 182 nM
19 | C[C@@H]1CN(C(=O)c2ccccc2)CCN1C(=O)C(=O)c1c[nH]c2c1ccc1cccnc12 | 45 µM | 17 nM
20 | C[C@@H]1CN(C(=O)c2ccccc2)CCN1C(=O)C(=O)c1ccc2cc(C(N)=O)ccc2c1 | 189 µM | 11.9 nM

Row | SMILES | CC50 [1] | EC50 [2]
21 | C[C@@H]1CN(C(=O)c2ccccc2)CCN1C(=O)C(=O)c1ccc2cc(-c3nccs3)ccc2c1 |  | 0.03 nM
22 | O=C(C(=O)N1CCN(C(=O)c2ccccc2)CC1)c1nc2ccccc2[nH]1 | > 300 µM | 2460 nM
23 | CC1CN(C(=O)c2ccccc2)CCN1C(=O)C(=O)c1nsc2ccccc12 (stereo not given) | 75 µM | 734 nM
24 | C[C@H]1CN(C(=O)c2ccccc2)CCN1C(=O)C(=O)c1ccc2ccccc2n1 | 166 µM | 4.4 nM
25 | C[C@@H]1CN(C(=O)c2ccccc2)CCN1C(=O)C(=O)c1ccc2cc(C(=N)NO)ccc2c1 | 234 µM | 0.16 nM
26 | O=C(C(=O)N1CCN(C(=O)c2ccccc2)CC1)c1cc2ccccc2s1 | 9 µM | 2840 nM
27 | O=C(C(=O)N1CCN(C(=O)c2ccccc2)CC1)c1ccc2cnccc2n1 | > 300 µM | 137 nM
28 | C[C@@H]1CN(C(=O)c2ccccc2)CCN1C(=O)C(=O)c1ccc2cc(C#N)ccc2c1 | 102 µM | 30 nM
29 | O=C(C(=O)N1CCN(C(=O)c2ccccc2)CC1)c1ccc2ccccc2n1 | > 300 µM | 13 nM
30 | C[C@@H]1CN(C(=O)c2ccccc2)CCN1C(=O)C(=O)c1cc2cccn2cn1 | > 300 µM | 407 nM
31 | C[C@@H]1CN(C(=O)c2ccccc2)CCN1C(=O)C(=O)c1ccc2cc(Br)ccc2c1 | 301 µM | 1.3 nM
32 | COc1ccc2nc(C(=O)C(=O)N3CCN(C(=O)c4ccccc4)C[C@H]3C)sc2c1 | 151 µM | 2.6 nM
33 | COc1cccc2nc(C(=O)C(=O)N3CCN(C(=O)c4ccccc4)CC3C)ccc12 (stereo not given) | 200 µM | 2.9 nM
34 | C[C@@H]1CN(C(=O)c2ccccc2)CCN1C(=O)C(=O)c1cn2c(n1)sc1ccccc12 | > 300 µM | 11 nM
35 | O=C(C(=O)N1CCN(C(=O)c2ccccc2)CC1)c1ccc2[nH]ccc2c1 | > 250 µM | 255 nM
36 | O=C(C(=O)N1CCN(C(=O)c2ccccc2)CC1)c1ccc2ccccc2c1 | 94 µM | 135 nM
37 | C[C@@H]1CN(C(=O)c2ccccc2)CCN1C(=O)C(=O)c1ccc2cc(C(=O)O)ccc2c1 | > 300 µM | 27 nM
38 | O=C(C(=O)N1CCN(C(=O)c2ccccc2)CC1)c1ccc2cccnc2n1 | > 300 µM | > 5000 nM
39 | C[C@@H]1CN(C(=O)c2ccccc2)CCN1C(=O)C(=O)c1nc2ccccc2[nH]1 | > 300 µM | 798 nM
40 | CC1CN(C(=O)c2ccccc2)CCN1C(=O)C(=O)c1ccc2ccccc2n1 (stereo not given) | 266 µM | 1.2 nM

Row | SMILES | CC50 [1] | EC50 [2]
41 | CC1CN(C(=O)c2ccccc2)CCN1C(=O)C(=O)c1ccc2cc(Br)ccc2n1 (stereo not given) | 134 µM | 1.7 nM
42 | CC1CN(C(=O)c2ccccc2)CCN1C(=O)C(=O)c1ccc2cc(O)ccc2n1 (stereo not given) | 210 µM | 0.2 nM
43 | CC1CN(C(=O)c2ccccc2)CCN1C(=O)C(=O)c1cnc2ccccn12 (stereo not given) | > 300 µM | > 5000 nM
44 | O=C(C(=O)N1CCN(C(=O)c2ccccc2)CC1)c1cccc2ccccc12 | > 300 µM | 355 nM
45 | C[C@@H]1CN(C(=O)c2ccccc2)CCN1C(=O)C(=O)c1ccc2ccccc2c1 | 171 µM | 2.4 nM
46 | C[C@@H]1CN(C(=O)c2ccccc2)CCN1C(=O)C(=O)c1ccc2[nH]nnc2c1 | > 300 µM | 3060 nM
47 | CC1CN(C(=O)c2ccccc2)CCN1C(=O)C(=O)c1cnc2ncccn12 (stereo not given) | > 300 µM | > 5000 nM
48 | COc1cc(OC)c2cc(C(=O)C(=O)N3CCN(C(=O)c4ccccc4)CC3C)[nH]c2c1 (stereo not given) | 68 µM | > 5000 nM
49 | COc1ccc2nc(C(=O)C(=O)N3CCN(C(=O)c4ccccc4)CC3C)ccc2c1 (stereo not given) | 184 µM | 0.2 nM
50 | O=C(C(=O)N1CCN(C(=O)c2ccccc2)CC1)c1ccc2cccnc2c1 | > 300 µM | 2860 nM
51 | C[C@@H]1CN(C(=O)c2ccccc2)CCN1C(=O)C(=O)c1nc2ccccc2s1 | > 230 µM | 34 nM
52 | CC1CN(C(=O)c2ccccc2)CCN1C(=O)C(=O)c1ccc2cc(F)ccc2n1 (stereo not given) | 258 µM | 5.9 nM
53 | CC1CN(C(=O)c2ccccc2)CCN1C(=O)C(=O)c1cccc2cc[nH]c12 (stereo not given) | 212 µM | 1010 nM
54 | COc1cc(C(=O)C(=O)N2CCN(C(=O)c3ccccc3)C[C@H]2C)nc2ccccc12 | 96 µM | 56 nM
55 | COc1ccc2cc(C(=O)C(=O)N3CCN(C(=O)c4ccccc4)CC3C)[nH]c2c1 (stereo not given) | 27 µM | 4.8 nM
56 | C[C@@H]1CN(C(=O)c2ccccc2)CCN1C(=O)C(=O)c1n[nH]c2ccccc12 | > 300 µM | 655 nM
57 | C[C@@H]1CN(C(=O)c2ccccc2)CCN1C(=O)C(=O)c1cnc2ccccc2n1 | > 300 µM | 4.6 nM
58 | C[C@@H]1CN(C(=O)c2ccccc2)CCN1C(=O)C(=O)c1c[nH]c2ccccc12 | 200 µM | 4 nM
59 | C[C@@H]1CN(C(=O)c2ccccc2)CCN1C(=O)C(=O)c1cc2ccccc2[nH]1 |  | 219 nM
